Reference: PubChem BioAssay AID1259407 (Chemical Carcinogenesis Research Information System (CCRIS), 2018)
Calls of active or inactive are those of the source. No rule for the calls is given here. Where a SMILES comes first, the peptide text is derived from it. [ ]: non-standard residue; d: D form. pGlu = O=C1CC[C@@H](C(=O)O)N1; Thz = O=C(O)[C@@H]1CSCN1

Test system: CCRIS mutagenicity, Ames/micronucleus/aberration tests
Test: CCRIS mutagenicity studies
[1] = Test System: AMES SALMONELLA TYPHIMURIUM, Strain/Indicator: TA98, Metabolic Activation: NONE, Method: STANDARD PLATE
[2] = Test System: AMES SALMONELLA TYPHIMURIUM, Strain/Indicator: TA100, Metabolic Activation: NONE, Method: STANDARD PLATE
[3] = Test System: AMES SALMONELLA TYPHIMURIUM, Strain/Indicator: TA1535, Metabolic Activation: NONE, Method: STANDARD PLATE
[4] = Test System: AMES SALMONELLA TYPHIMURIUM, Strain/Indicator: TA1537, Metabolic Activation: NONE, Method: STANDARD PLATE
[5] = Test System: AMES SALMONELLA TYPHIMURIUM, Strain/Indicator: TA98, Metabolic Activation: RAT, LIVER, S-9, AROCLOR 1254, Method: STANDARD PLATE
[6] = Test System: AMES SALMONELLA TYPHIMURIUM, Strain/Indicator: TA97, Metabolic Activation: NONE, Method: STANDARD PLATE
[7] = Test System: AMES SALMONELLA TYPHIMURIUM, Strain/Indicator: TA97, Metabolic Activation: RAT, LIVER, S-9, AROCLOR 1254, Method: STANDARD PLATE
[8] = Test System: AMES SALMONELLA TYPHIMURIUM, Strain/Indicator: TA100, Metabolic Activation: RAT, LIVER, S-9, AROCLOR 1254, Method: STANDARD PLATE
[9] = Test System: MOUSE LYMPHOMA, Strain/Indicator: L5178Y (TK+/TK-), Metabolic Activation: NONE, Method: SUSPENSION/PLATE
[10] = Test System: Mouse lymphoma, Strain/Indicator: L5178Y (tk+/tk-), Metabolic Activation: Rat, Liver, S-9, Aroclor 1254, Method: Suspension/plate

Measured: mutagenic call

C/C(=C(/OCCOc1ccc(Cl)cc1)c1ccc(Cl)cc1Cl)n1ccnc1
inactive: [1] inactive; negative | Test System: AMES SALMONELLA TYPHIMURIUM, Strain/Indicator: TA98, Metabolic Activation: RAT, LIVER, S-9, PHENOBARBITAL AND 5,6-BENZOFLAVONE, Method: STANDARD PLATE inactive; negative | [2] inactive; negative | Test System: AMES SALMONELLA TYPHIMURIUM, Strain/Indicator: TA100, Metabolic Activation: RAT, LIVER, S-9, PHENOBARBITAL AND 5,6-BENZOFLAVONE, Method: STANDARD PLATE inactive; negative | [3] inactive; negative | Test System: AMES SALMONELLA TYPHIMURIUM, Strain/Indicator: TA1535, Metabolic Activation: RAT, LIVER, S-9, PHENOBARBITAL AND 5,6-BENZOFLAVONE, Method: STANDARD PLATE inactive; negative | [4] inactive; negative | Test System: AMES SALMONELLA TYPHIMURIUM, Strain/Indicator: TA1537, Metabolic Activation: RAT, LIVER, S-9, PHENOBARBITAL AND 5,6-BENZOFLAVONE, Method: STANDARD PLATE inactive; negative | Test System: E. COLI, Strain/Indicator: WP2 UVRA, Metabolic Activation: NONE, Method: STANDARD PLATE inactive; negative | Test System: E. COLI, Strain/Indicator: WP2 UVRA, Metabolic Activation: RAT, LIVER, S-9, PHENOBARBITAL AND 5,6-BENZOFLAVONE, Method: STANDARD PLATE inactive; negative

O=[N+]([O-])c1c(O)ccc2c1[nH]c1ccccc12
inactive: [1] inactive; negative | [5] inactive; negative

C/C=C(\C)CCl
active: Test System: AMES SALMONELLA TYPHIMURIUM, Strain/Indicator: TA100, Metabolic Activation: NONE, Method: LIQUID SUSPENSION active; positive | Test System: AMES SALMONELLA TYPHIMURIUM, Strain/Indicator: TA100, Metabolic Activation: RAT, LIVER, S-9, Method: LIQUID SUSPENSION active; positive

Oc1cccc(Cl)c1
inactive: [8] inactive; negative | Test System: AMES SALMONELLA TYPHIMURIUM, Strain/Indicator: TA104, Metabolic Activation: NONE, Method: STANDARD PLATE inactive; negative | Test System: AMES SALMONELLA TYPHIMURIUM, Strain/Indicator: TA104, Metabolic Activation: RAT, LIVER, S-9, AROCLOR 1254, Method: STANDARD PLATE inactive; negative
active: [6] active; positive | [7] active; positive | [1] active; positive | [5] active; positive | [2] active; positive

O[C@H]1[C@H]2O[C@H]2c2c(ccc3c4c5c(cccc5cc23)C=C4)[C@@H]1O
active: [1] active; positive | Test System: AMES SALMONELLA TYPHIMURIUM, Strain/Indicator: TA98, Metabolic Activation: RAT, LIVER, S-9, AROCLOR 1254 (0.4, 0.8, 1.15 OR 1.5 MG/PLATE), Method: STANDARD PLATE active; positive | [5] active; positive

CN(CCCC(=O)O)N=O
active: Test System: AMES SALMONELLA TYPHIMURIUM, Strain/Indicator: TA1535, Metabolic Activation: RAT, LIVER, S-9, KC500 OR PHENOBARBITAL, Method: LIQUID SUSPENSION active; positive

O=C1CC[C@@H](C(=O)N2CSC[C@H]2C(=O)O)N1 ([pGlu]-[Thz]-OH)
inactive: [1] inactive; negative | [5] inactive; negative | [2] inactive; negative | [8] inactive; negative | [3] inactive; negative | Test System: AMES SALMONELLA TYPHIMURIUM, Strain/Indicator: TA1535, Metabolic Activation: RAT, LIVER, S-9, AROCLOR 1254, Method: STANDARD PLATE inactive; negative | [4] inactive; negative | Test System: AMES SALMONELLA TYPHIMURIUM, Strain/Indicator: TA1537, Metabolic Activation: RAT, LIVER, S-9, AROCLOR 1254, Method: STANDARD PLATE inactive; negative | Test System: AMES SALMONELLA TYPHIMURIUM, Strain/Indicator: TA1538, Metabolic Activation: NONE, Method: STANDARD PLATE inactive; negative | Test System: AMES SALMONELLA TYPHIMURIUM, Strain/Indicator: TA1538, Metabolic Activation: RAT, LIVER, S-9, AROCLOR 1254, Method: STANDARD PLATE inactive; negative | [9] inactive; negative | Test System: MOUSE LYMPHOMA, Strain/Indicator: L5178Y (TK+/TK-), Metabolic Activation: RAT, LIVER, S-9, AROCLOR 1254, Method: SUSPENSION/PLATE inactive; negative | Test System: UDS HELA CELLS, Strain/Indicator: THY INCORP, Metabolic Activation: NONE, Method: AUTORADIOGRAPHY inactive; negative | Test System: UDS HELA CELLS, Strain/Indicator: THY INCORP, Metabolic Activation: RAT, LIVER, S-9, AROCLOR 1254, Method: AUTORADIOGRAPHY inactive; negative

C=COC(C)=O
active: Test System: AMES SALMONELLA TYPHIMURIUM, Strain/Indicator: TA102, Metabolic Activation: RAT, LIVER, S-9, AROCLOR 1254, Method: PREINCUBATION active; positive | [9] active; positive. reevaluation of results: positive | [10] active; positive
inactive: [6] inactive; negative | [7] inactive; negative | [1] inactive; negative | [5] inactive; negative | [2] inactive; negative | [8] inactive; negative | Test System: AMES SALMONELLA TYPHIMURIUM, Strain/Indicator: TA102, Metabolic Activation: RAT LIVER S-9, PHENOBARBITAL AND 5,6-BENZOFLAVONE, Method: STANDARD PLATE inactive; negative | Test System: AMES SALMONELLA TYPHIMURIUM, Strain/Indicator: TA102, Metabolic Activation: RAT, LIVER, S-9, AROCLOR 1254, Method: STANDARD PLATE inactive; negative | Test System: AMES SALMONELLA TYPHIMURIUM, Strain/Indicator: TA2638, Metabolic Activation: RAT LIVER S-9, PHENOBARBITAL AND 5,6-BENZOFLAVONE, Method: STANDARD PLATE inactive; negative | Test System: Ames Salmonella typhimurium, Strain/Indicator: TA98, Metabolic Activation: None, Method: Preincubation inactive; negative | Test System: Ames Salmonella typhimurium, Strain/Indicator: TA98, Metabolic Activation: Rat, Liver, S9, Sodium phenobarbital and 5,6-benzoflavone (10%), Method: Preincubation inactive; negative | Test System: Ames Salmonella typhimurium, Strain/Indicator: TA100, Metabolic Activation: None, Method: Preincubation inactive; negative | Test System: Ames Salmonella typhimurium, Strain/Indicator: TA100, Metabolic Activation: Rat, Liver, S9, Sodium phenobarbital and 5,6-benzoflavone (10%), Method: Preincubation inactive; negative | Test System: Ames Salmonella typhimurium, Strain/Indicator: TA1535, Metabolic Activation: None, Method: Preincubation inactive; negative | Test System: Ames Salmonella typhimurium, Strain/Indicator: TA1535, Metabolic Activation: Rat, Liver, S9, Sodium phenobarbital and 5,6-benzoflavone (10%), Method: Preincubation inactive; negative | Test System: Ames Salmonella typhimurium, Strain/Indicator: TA1537, Metabolic Activation: None, Method: Preincubation inactive; negative | Test System: Ames Salmonella typhimurium, Strain/Indicator: TA1537, Metabolic Activation: Rat, Liver, S9, Sodium phenobarbital and 5,6-benzoflavone (10%), Method: Preincubation inactive; negative | Test System: Ames Salmonella typhimurium, Strain/Indicator: YG7108pin3ERb5, Metabolic Activation: None, Method: Standard plate inactive; negative | Test System: E. COLI, Strain/Indicator: WP2 (PKM101), Metabolic Activation: RAT LIVER S-9, PHENOBARBITAL AND 5,6-BENZOFLAVONE, Method: STANDARD PLATE inactive; negative | Test System: E. COLI, Strain/Indicator: WP2 UVRA (PKM101), Metabolic Activation: RAT LIVER S-9, PHENOBARBITAL AND 5,6-BENZOFLAVONE, Method: STANDARD PLATE inactive; negative | Test System: E. coli, Strain/Indicator: WP2uvrA/pKM101, Metabolic Activation: None, Method: Preincubation inactive; negative | Test System: E. coli, Strain/Indicator: WP2uvrA/pKM101, Metabolic Activation: Rat, Liver, S9, Sodium phenobarbital and 5,6-benzoflavone (10%), Method: Preincubation inactive; negative

[N-]=[N+]=CC(=O)NCC(N)=O
active: [3] active; positive | Test System: UDS RODENT CELLS, Strain/Indicator: THY INCORP (NON-S-PHASE), Metabolic Activation: NONE, Method: AUTORADIOGRAPHY active; positive

CC(C)OC(=O)c1cc(NC(=S)OC(C)C)ccc1Cl
inactive: Test System: Mouse lymphoma, Strain/Indicator: L5178Y (tk+/tk-), Metabolic Activation: None, Method: Suspension/plate inactive; negative | [10] inactive; negative
